The values below come from ChEMBL document CHEMBL5223091, “Targeting the Mitotic Kinesin KIF18A in Chromosomally Unstable Cancers: Hit Optimization Toward an In Vivo Chemical Probe” (J Med Chem, 2022).

Molecules are shown by their SMILES. Calls of active or inactive are those of the source. No cut-off for these calls is given here. A value given as a limit tells only on which side of the number the result lay.

In series [1] the test system is OVCAR-3. Description: Antimitotic activity in human OVCAR-3 cells xenografted in CD-1 mouse assessed as time prolongation of mitotic arrest per day at 100 mg/kg, po. Type of series: functional. A general note: A xenograft is tissue or cells of one species grown in another, often human tumour cells in immunodeficient mice.
A short description of series [2]: Unbound fraction in plasma (unknown origin) by ultracentrifugation. The class given is ADME, cell-free.
In series [3] the target is T1, Kinesin-like protein KIF11 (Homo sapiens, UniProt P52732).
T1 sequence (P52732 whole entry): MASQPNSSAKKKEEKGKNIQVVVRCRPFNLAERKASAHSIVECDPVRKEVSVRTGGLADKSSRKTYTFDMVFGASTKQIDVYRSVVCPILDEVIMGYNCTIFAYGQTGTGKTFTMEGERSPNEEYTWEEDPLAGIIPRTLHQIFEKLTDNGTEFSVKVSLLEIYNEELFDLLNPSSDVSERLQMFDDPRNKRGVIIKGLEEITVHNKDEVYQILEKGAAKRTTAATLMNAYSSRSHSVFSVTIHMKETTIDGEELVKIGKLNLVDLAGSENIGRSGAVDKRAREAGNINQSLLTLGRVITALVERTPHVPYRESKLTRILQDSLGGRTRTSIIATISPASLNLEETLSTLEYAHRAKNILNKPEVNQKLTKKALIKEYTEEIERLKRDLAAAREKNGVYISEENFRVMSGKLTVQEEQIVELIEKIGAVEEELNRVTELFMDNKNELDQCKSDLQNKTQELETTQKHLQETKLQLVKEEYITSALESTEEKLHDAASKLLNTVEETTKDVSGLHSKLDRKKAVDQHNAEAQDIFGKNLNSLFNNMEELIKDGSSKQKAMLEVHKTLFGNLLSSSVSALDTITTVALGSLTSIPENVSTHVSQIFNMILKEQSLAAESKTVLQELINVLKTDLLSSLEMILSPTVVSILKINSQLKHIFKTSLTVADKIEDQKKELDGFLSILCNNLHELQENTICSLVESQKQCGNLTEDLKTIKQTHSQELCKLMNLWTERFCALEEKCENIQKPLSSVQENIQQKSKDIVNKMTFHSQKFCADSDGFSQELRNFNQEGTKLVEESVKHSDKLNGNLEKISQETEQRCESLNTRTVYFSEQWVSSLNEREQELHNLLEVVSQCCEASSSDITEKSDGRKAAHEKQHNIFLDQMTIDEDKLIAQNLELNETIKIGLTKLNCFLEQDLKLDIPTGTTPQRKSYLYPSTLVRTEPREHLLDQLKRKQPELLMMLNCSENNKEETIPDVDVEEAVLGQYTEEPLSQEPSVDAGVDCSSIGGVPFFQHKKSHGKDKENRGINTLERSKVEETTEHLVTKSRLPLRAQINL
As to the kind of experiment: Inhibition of recombinant GST-tagged human Eg5 assessed as inhibition of microtubule-stimulated ATPase activity preincubated for 30 mins followed by ATP addition and further incubated for 15 mins by ADP-Glo reagent based assay. (In general: ADP-Glo turns the ADP formed in a reaction into a luminescent signal.)

The nature of series [4]: AUC (0 to 24 hrs) in CD-1 mouse xenografted with human OVCAR-3 cells at 100 mg/kg, ip by LC-MS/MS analysis. Type of series: ADME, organism-based. Also on record: dose 100 mg/kg, route ip. The conditions noted are these: in vivo.
The test system of series [5] is OVCAR-3. As to the kind of experiment: Antimitotic activity in human OVCAR-3 cells xenografted in CD-1 mouse assessed as increase in phospho-histone H3 positive cells in tumor at 100 mg/kg, po measured after 24 hrs. The class given is functional, organism-based.
Series [6] can be described thus: Metabolic stability in human liver microsomes assessed as intrinsic clearance at 0.5 uM incubated upto 40 mins by LCMS analysis. Type of series: ADME, Microsome. The conditions noted are these: read-out: CLH. For orientation: Liver microsomes are vesicles of endoplasmic reticulum, rich in cytochrome P450 enzymes.
For series [7], the system named is OVCAR-3. As to the kind of experiment: Antimitotic activity in human OVCAR-3 cells xenografted in CD-1 mouse assessed as increase in phospho-histone H3 positive cells in tumor at 100 mg/kg, po measured after 8 hrs. Type of series: functional, organism-based.
Series [8] is described as follows: Cmax in CD-1 mouse at 1 mg/kg, iv and 10 mg/kg, po. More on the design: dose 10 mg/kg, route po. Type of series: ADME, organism-based. The conditions noted are these: in vivo.
Series [9] in a line: Volume of distribution at steady state in CD-1 mouse at 1 mg/kg, iv and 10 mg/kg, po. Type of series: ADME, organism-based. The conditions noted are these: in vivo.
Series [10] is described as follows: Unbound fraction in CD-1 mouse plasma xenografted with human OVCAR-3 cells at 100 mg/kg, po by LC-MS/MS analysis. The class given is ADME, organism-based.
The target in series [11] is T2, Kinesin-like protein KIF18A (Mus musculus, UniProt Q91WD7).
T2 sequence (Q91WD7 whole entry): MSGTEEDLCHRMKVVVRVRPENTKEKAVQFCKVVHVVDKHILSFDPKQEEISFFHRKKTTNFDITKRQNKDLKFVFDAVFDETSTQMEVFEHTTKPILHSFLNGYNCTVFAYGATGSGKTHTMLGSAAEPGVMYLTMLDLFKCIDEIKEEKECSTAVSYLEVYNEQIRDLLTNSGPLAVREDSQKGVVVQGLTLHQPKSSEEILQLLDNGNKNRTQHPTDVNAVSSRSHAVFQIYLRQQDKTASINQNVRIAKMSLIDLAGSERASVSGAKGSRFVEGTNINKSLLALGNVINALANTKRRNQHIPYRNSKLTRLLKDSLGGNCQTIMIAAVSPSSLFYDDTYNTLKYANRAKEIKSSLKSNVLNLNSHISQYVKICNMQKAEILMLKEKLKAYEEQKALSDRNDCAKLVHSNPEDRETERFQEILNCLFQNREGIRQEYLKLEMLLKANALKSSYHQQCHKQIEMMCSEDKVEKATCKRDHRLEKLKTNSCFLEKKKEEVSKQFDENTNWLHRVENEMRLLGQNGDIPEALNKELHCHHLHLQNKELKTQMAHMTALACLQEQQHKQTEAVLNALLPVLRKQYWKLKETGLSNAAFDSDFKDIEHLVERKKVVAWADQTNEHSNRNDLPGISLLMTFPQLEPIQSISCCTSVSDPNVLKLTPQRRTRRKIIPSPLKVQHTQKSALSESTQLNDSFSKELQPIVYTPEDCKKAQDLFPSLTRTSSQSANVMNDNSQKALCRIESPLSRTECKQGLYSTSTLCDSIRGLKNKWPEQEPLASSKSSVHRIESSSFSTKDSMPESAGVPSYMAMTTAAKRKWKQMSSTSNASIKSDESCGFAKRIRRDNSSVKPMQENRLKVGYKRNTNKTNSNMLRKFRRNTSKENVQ
As to the kind of experiment: Inhibition of recombinant His-tagged mouse KIF18A expressed in Trichoplusia ni insect cells assessed as inhibition of microtubule-stimulated ATPase activity preincubated for 30 mins followed by ATP addition and further incubated for 15 mins by ADP-Glo reagent based assay. More on the design: species or system Insect cell.

Series [12] is described as follows: Passive permeability across apical to basolateral side in dog MDCK-MDR1 cells at 5 uM. Type of series: ADME, cell-based, Canis lupus familiaris. The conditions noted are these: read-out: permeability.
Series [13] in a line: Oral bioavailability in CD-1 mouse at 10 mg/kg. Type of series: ADME, organism-based. As to conditions: in vivo.
Series [14] is described as follows: Plasma concentration in CD-1 mouse xenografted with human OVCAR-3 cells at 100 mg/kg, po measured upto 24 hrs by LC-MS/MS analysis. The class given is ADME, organism-based.
Series [15] deals with Centromere-associated protein E (Homo sapiens, UniProt Q02224). Description: Inhibition of recombinant GST-tagged human CENP-E assessed as inhibition of microtubule-stimulated ATPase activity preincubated for 30 mins followed by ATP addition and further incubated for 15 mins by ADP-Glo reagent based assay.
Chain of Centromere-associated protein E (Q02224 whole entry): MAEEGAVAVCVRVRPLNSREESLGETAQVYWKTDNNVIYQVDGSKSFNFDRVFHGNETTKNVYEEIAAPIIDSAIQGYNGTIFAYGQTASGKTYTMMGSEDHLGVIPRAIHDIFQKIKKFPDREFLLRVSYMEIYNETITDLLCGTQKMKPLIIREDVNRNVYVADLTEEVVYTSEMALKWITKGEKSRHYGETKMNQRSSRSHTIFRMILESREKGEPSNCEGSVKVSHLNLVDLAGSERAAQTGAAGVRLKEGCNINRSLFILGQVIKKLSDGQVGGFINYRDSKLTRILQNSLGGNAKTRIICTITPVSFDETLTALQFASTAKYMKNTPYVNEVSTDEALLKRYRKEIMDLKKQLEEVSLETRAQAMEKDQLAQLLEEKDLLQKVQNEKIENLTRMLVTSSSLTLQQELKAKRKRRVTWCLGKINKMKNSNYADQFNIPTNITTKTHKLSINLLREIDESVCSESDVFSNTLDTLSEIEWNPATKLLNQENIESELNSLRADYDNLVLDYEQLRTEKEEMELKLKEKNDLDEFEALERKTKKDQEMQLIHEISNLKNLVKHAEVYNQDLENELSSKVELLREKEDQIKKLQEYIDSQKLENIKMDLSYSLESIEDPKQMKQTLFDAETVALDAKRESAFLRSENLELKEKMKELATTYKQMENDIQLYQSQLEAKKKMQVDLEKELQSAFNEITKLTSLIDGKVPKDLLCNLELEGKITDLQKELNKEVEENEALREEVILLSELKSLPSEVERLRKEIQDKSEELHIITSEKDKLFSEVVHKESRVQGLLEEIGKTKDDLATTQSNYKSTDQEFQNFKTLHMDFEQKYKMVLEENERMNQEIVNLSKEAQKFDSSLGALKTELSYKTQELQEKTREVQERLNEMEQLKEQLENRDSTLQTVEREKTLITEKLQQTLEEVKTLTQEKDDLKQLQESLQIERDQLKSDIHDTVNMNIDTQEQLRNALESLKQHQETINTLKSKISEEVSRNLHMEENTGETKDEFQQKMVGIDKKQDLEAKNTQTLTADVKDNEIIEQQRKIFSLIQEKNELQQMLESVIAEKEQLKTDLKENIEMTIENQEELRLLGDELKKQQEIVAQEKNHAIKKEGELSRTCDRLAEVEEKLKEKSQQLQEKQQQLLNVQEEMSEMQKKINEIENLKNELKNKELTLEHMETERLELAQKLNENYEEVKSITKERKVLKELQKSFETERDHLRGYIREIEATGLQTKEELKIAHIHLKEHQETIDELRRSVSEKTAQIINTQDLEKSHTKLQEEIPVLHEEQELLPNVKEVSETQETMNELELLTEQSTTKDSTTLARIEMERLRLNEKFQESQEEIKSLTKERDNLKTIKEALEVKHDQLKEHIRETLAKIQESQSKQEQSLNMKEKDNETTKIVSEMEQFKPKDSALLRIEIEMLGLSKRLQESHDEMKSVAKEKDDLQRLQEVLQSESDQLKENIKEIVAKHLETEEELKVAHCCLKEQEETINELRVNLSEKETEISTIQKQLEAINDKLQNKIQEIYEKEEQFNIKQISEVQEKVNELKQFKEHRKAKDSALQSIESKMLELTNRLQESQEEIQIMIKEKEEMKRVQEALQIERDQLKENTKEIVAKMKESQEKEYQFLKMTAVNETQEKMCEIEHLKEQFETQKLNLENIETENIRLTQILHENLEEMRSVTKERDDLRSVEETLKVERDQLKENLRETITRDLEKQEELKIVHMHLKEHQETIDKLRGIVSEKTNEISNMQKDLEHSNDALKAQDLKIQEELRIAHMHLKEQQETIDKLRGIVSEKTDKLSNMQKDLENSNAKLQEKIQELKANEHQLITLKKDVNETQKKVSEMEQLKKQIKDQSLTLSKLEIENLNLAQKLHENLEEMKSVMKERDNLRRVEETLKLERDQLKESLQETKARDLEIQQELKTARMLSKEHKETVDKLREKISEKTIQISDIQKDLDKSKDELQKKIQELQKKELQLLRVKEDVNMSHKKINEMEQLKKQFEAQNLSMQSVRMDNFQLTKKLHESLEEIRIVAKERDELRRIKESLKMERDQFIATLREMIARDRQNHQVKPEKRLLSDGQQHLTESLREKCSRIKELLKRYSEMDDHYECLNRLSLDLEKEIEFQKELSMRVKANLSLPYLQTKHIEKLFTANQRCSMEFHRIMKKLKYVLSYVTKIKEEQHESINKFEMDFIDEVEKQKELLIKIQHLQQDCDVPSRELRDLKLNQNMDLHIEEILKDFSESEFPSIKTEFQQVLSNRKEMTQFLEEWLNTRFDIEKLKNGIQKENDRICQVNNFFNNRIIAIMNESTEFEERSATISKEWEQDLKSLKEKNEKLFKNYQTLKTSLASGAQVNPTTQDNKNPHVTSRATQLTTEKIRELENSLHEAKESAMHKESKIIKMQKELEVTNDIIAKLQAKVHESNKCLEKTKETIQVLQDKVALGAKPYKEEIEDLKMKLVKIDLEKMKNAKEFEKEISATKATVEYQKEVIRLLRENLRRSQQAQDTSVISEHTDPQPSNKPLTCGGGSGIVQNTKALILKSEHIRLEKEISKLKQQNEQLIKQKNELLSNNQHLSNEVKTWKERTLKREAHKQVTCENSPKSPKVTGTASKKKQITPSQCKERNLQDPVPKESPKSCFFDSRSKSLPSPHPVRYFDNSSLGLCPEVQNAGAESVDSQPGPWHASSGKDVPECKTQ
Series [16] has as its system OVCAR-3. Description: Induction of mitotic arrest in human OVCAR-3 cells assessed as p-histone H3 incubated for 24 hrs by mitotic - imaging assay. The conditions noted are these: OVCAR-3, 24 h. Type of series: functional, cell-based.

As for `CC(C)(C)NS(=O)(=O)c1cccc(NC(=O)c2ncc(NS(C)(=O)=O)nc2N2CCC3(CC2)CC3)n1`, in the series with OVCAR-3 [1], the Time result was “>=12 hr”. Further, the unbound share (fraction unbound) in [2] and in series [10] was 0.022 each time. Also, the results for the IC50 in series [3], in series [11] and in series [15] were over 100000 nM, 77 nM and 86000 nM, respectively. In [4], this compound came in with an AUC(0-t) of 116 µM·h. Besides, the outcome in the series on OVCAR-3 [5] was inactive. Besides, the microsomal CLint at 0.5 µM in series [6] turned out to be 127 µL/min/mg. Further, in the series with OVCAR-3 [7], the result was Active. The same compound registered a maximum concentration (Cmax) in [8] of 2150 nM. This compound also showed a Vdss in [9] of 2 L/kg. Further, the Papp A→B at 5 µM in series [12] was under 0.3 ×10⁻⁶ cm/s. The compound also came in with a bioavailability in series [13] of 35%. For the same compound, the concentration at 24 h in series [14] came to 16 nM. Moreover, in the series with OVCAR-3 [16], the EC50 turned out to be 32 nM.

For orientation: fraction unbound means free concentration divided by total concentration. A high value points to much free substance. Usually IC50 stands for the concentration that gives 50% inhibition. What is called AUC(0-t) is the area under the concentration-time curve up to a stated or last time point. A higher AUC(0-t) goes with high exposure. Broadly, the Cmax is the highest concentration seen after dosing. The bioavailability is the share of a dose that reaches the circulation, judged against a reference dose that is usually intravenous. The low end stands for little systemic uptake, the high end for much systemic uptake. For orientation: EC50 means the concentration needed to bring the measured effect to its halfway point.
